Test results as given in patent US20230295096A1, “PYRAZOLE CARBOXAMIDE COMPOUNDS FOR TREATMENT OF HBV” (ASSEMBLY BIOSCIENCES, INC., priority 2020, published 2023).

Each compound was assayed on HBV (assay: Viral load production from HepAD38 cells, qPCR of the HBV core sequence in supernatant). Conditions: Hepatitis B virus, HePAD38, 120 h, HepAD38 cells, 5 days, HBV DNA in supernatant by qPCR; Table 1 ranges; read-out: Activity (viral load lowering EC50).
Type: cell-based
Method: HepAD38 cells grown in a T-150 flask (Corning, cat#: 430825) with Growth Medium (DMEM/F12 (1:1) (Hyclone, cat#: SH30023.02), 1X Pen/Strep (Invitrogen, cat#: 15140-122), 10% FBS (Tissue Culture Biologics, cat#: 101), 250 µg/mL G418 (Alfa Aesar, cat#: J62671), 1 µg/mL Tetracycline (Teknova, cat#: T3320)) were detached with 0.25% trypsin-EDTA (Invitrogen, cat#: 25200-056). Tetracycline-free treatment medium (15 mL DMEM/F12 (1:1) 1× Pen/step, with 2% FBS, Tet-system approved (Clontech, cat#: 631106) were then added to mix, transferred into a 50 ml conical tube (Falcon, cat#: 21008-918,) and spun at 1300 rpm for 5 min. Pelleted cells were then re-suspended/washed with 50 mL of 1X DPBS (Invitrogen, cat#: 14190-136) 2 times and 50 mL treatment medium twice. HepAD38 cells were then re-suspended with 10 mL of treatment medium, syringed and counted. Wells of 96-well clear bottom TC plate (Corning, cat#: 3904,) were seeded at 50.000 cells/well in 180 µL of treatment medium, and 20 µL of either 10% DMSO (Sigma, cat#: D4540) as controls or a 10X solution of test compounds in 10% DMSO in treatment media was added for a final compound concentration starting at 10 µM, and plates were incubated in 5% CO2 incubator at 37° C. for 5 days.
Subsequently viral load production was assayed by quantitative PCR (qPCR) of the HBV core sequence. PCR reaction mixture containing forward primers HBV-f 5′-CTGTGCCTTGGGTGGCTTT-3′ (IDT DNA), Reverse primers HBV-r 5′-[…]-3′ (IDT DNA), Fluorescent TaqMan^tm Probes HBV-probe 5′-FAM/AGCTCCAAA/ZEN/[…]/3IABkFQ-3′ (IDT DNA), 10 µL/well of PerfeCTa® qPCR ToughMix® (Quanta Biosciences, Cat#: 95114-05 K), and 6 µL/well of DEPC water (Alfa Aesar, cat#: J62087) was prepared. Four µL of supernatant was added to 16 µL of the reaction mixture in a qPCR plate (Applied Biosytems, Cat#: 4309849), sealed with a film (Applied Biosystems, Cat#: 4311971), centrifuged for a few seconds, and subsequently run on an Applied Biosystems VIIA7. The PCR mixture was incubated at 45° C. for 5 min, then 95° C. for 10 min, followed by 40 cycles of 10 seconds at 95° C. and 20 seconds at 60° C. Viral load was quantified against known HBV DNA standards by using ViiA™ 7 Software. Viral load in the supernatant from wells with treated cells were compared against viral load in supernatant from DMSO control wells (≥ 3 per plate). Cell viability assay was performed with CellTiter-Glo Luminescent Cell Viability Assay (Promega, cat#: G7573) with modification. Mixed appropriate amount of CellTiter-Glo (CTG) 1X DPBS in a 1:1 ratio, added 100 uL of the mixture to each well followed completely removal of all supernatant in each well without touching cell surface. Incubated the plate at room temperature for 10 min on an orbital shaker, and then read the plate with a plate reader (TECAN M1000 or Envision). EC50 or CC50 values were calculated through curve-fitting of the four-parameter nonlinear-logistic-regression model (GraphPad Prism or Dotmatics). CC50 values were all >10 µM.
In the case of `Cn1nc(C2CC3CC(O)(c4cn(COP(=O)(OC(C)(C)C)OC(C)(C)C)nc4C(F)(F)F)CC3C2)c(C(=O)Nc2ccc(F)c(Cl)c2)c1N` (stereo not shown) [Compd. 6-1, (4-(5-(5-amino-4-((3-chloro-4-fluorophenyl)carbamoyl)-1-methyl-1H-pyrazol-3-yl)-2-hydroxyoctahydropentalen-2-yl)-3-(trifluoromethyl)-1H-pyrazol-1-yl)methyl di-tert-butyl phosphate], the EC50 is reported as 0.01 to 0.05 µM. For `Cn1nc(C2CC3CC(O)(c4ccccc4)CC3C2)c(C(=O)Nc2ccc(F)c(Cl)c2)c1N` (stereo not shown) [Example 1, 5-Amino-N-(3-chloro-4-fluorophenyl)-3-(5-hydroxy-5-phenyl-octahydropentalen-2-yl)-1-methyl-1H-pyrazole-4-carboxamide], the EC50 was under 0.01 µM. Compound `C=CCC1(O)CC2CC(c3nn(C)c(N)c3C(=O)Nc3ccc(F)c(Cl)c3)CC2C1` (stereo not shown) [Example 2, 3-(5-Allyl-5-hydroxyoctahydropentalen-2-yl)-5-amino-N-(3-chloro-4-fluorophenyl)-1-methyl-1H-pyrazole-4-carboxamide] has an EC50 of under 0.01 µM. With `Cn1nc(C2CC3CC(O)(c4ccc(Cl)cc4)CC3C2)c(C(=O)Nc2ccc(F)c(Cl)c2)c1N` (stereo not shown) [Example 3, 5-Amino-N-(3-chloro-4-fluorophenyl)-3-(5-(4-chlorophenyl)-5-hydroxyoctahydropentalen-2-yl)-1-methyl-1H-pyrazole-4-carboxamide] the EC50 was 0.01 to 0.05 µM. With `Cn1nc(C2CC3CC(O)(c4ccc(F)cc4)CC3C2)c(C(=O)Nc2ccc(F)c(Cl)c2)c1N` (stereo not shown) [Example 4, 5-Amino-N-(3-chloro-4-fluorophenyl)-3-(5-(4-fluorophenyl)-5-hydroxyoctahydropentalen-2-yl)-1-methyl-1H-pyrazole-4-carboxamide] the EC50 was 0.01 to 0.05 µM. For `COc1ccc(C2(O)CC3CC(c4nn(C)c(N)c4C(=O)Nc4ccc(F)c(Cl)c4)CC3C2)cc1` (stereo not shown) [Example 5, 5-Amino-N-(3-chloro-4-fluorophenyl)-3-(5-hydroxy-5-(4-methoxyphenyl)octahydropentalen-2-yl)-1-methyl-1H-pyrazole-4-carboxamide], the EC50 was under 0.01 µM. For `Cc1ccc(C2(O)CC3CC(c4nn(C)c(N)c4C(=O)Nc4ccc(F)c(Cl)c4)CC3C2)cc1` (stereo not shown) [Example 6, 5-Amino-N-(3-chloro-4-fluorophenyl)-3-(5-hydroxy-5-(p-tolyl)octahydropentalen-2-yl)-1-methyl-1H-pyrazole-4-carboxamide], the EC50 was under 0.01 µM. `Cc1ccc(C2(O)CC3CC(c4nn(C)c(N)c4C(=O)Nc4ccc(F)c(C#N)c4)CC3C2)cc1` (stereo not shown) [Example 7, 5-Amino-N-(3-cyano-4-fluorophenyl)-3-(5-hydroxy-5-(p-tolyl)octahydropentalen-2-yl)-1-methyl-1H-pyrazole-4-carboxamide] was tested, and the EC50 was under 0.01 µM. `Cc1ccccc1C1(O)CC2CC(c3nn(C)c(N)c3C(=O)Nc3ccc(F)c(Cl)c3)CC2C1` (stereo not shown) [Example 8, 5-Amino-N-(3-chloro-4-fluorophenyl)-3-(5-hydroxy-5-(o-tolyl)octahydropentalen-2-yl)-1-methyl-1H-pyrazole-4-carboxamide] was tested, and the EC50 was under 0.01 µM. For `Cn1nc(C2CC3CC(O)(c4ccc(F)cc4)CC3C2)c(C(=O)Nc2ccc(F)c(C#N)c2)c1N` (stereo not shown) [Example 9, 5-Amino-N-(3-cyano-4-fluorophenyl)-3-(5-(4-fluorophenyl)-5-hydroxyoctahydropentalen-2-yl)-1-methyl-1H-pyrazole-4-carboxamide], the EC50 was under 0.01 µM. In the case of `Cn1nc(C2CC3CC(O)(c4ccc(Oc5ccccc5)cc4)CC3C2)c(C(=O)Nc2ccc(F)c(Cl)c2)c1N` (stereo not shown) [Example 10, 5-Amino-N-(3-chloro-4-fluorophenyl)-3-(5-hydroxy-5-(4-phenoxyphenyl)octahydropentalen-2-yl)-1-methyl-1H-pyrazole-4-carboxamide], the EC50 is reported as under 0.01 µM. `Cn1nc(C2CC3CC(O)(c4cc(F)cc(F)c4)CC3C2)c(C(=O)Nc2ccc(F)c(Cl)c2)c1N` (stereo not shown) [Example 11, 5-Amino-N-(3-chloro-4-fluorophenyl)-3-(5-(3,5-difluorophenyl)-5-hydroxyoctahydropentalen-2-yl)-1-methyl-1H-pyrazole-4-carboxamide] was tested, and the EC50 was 0.01 to 0.05 µM. `Cn1nc(C2CC3CC(O)(c4ccc(F)c(F)c4)CC3C2)c(C(=O)Nc2ccc(F)c(Cl)c2)c1N` (stereo not shown) [Example 12, 5-Amino-N-(3-chloro-4-fluorophenyl)-3-(5-(3,4-difluorophenyl)-5-hydroxyoctahydropentalen-2-yl)-1-methyl-1H-pyrazole-4-carboxamide] was tested, and the EC50 was 0.01 to 0.05 µM. With `Cc1cc(C2(O)CC3CC(c4nn(C)c(N)c4C(=O)Nc4ccc(F)c(Cl)c4)CC3C2)ccc1F` (stereo not shown) [Example 13, 5-Amino-N-(3-chloro-4-fluorophenyl)-3-(5-(4-fluoro-3-methylphenyl)-5-hydroxyoctahydropentalen-2-yl)-1-methyl-1H-pyrazole-4-carboxamide] the EC50 was 0.01 to 0.05 µM. `Cn1nc(C2CC3CC(O)(c4ccccn4)CC3C2)c(C(=O)Nc2ccc(F)c(Cl)c2)c1N` (stereo not shown) [Example 14, 5-Amino-N-(3-chloro-4-fluorophenyl)-3-(5-hydroxy-5-(pyridin-2-yl)octahydropentalen-2-yl)-1-methyl-1H-pyrazole-4-carboxamide] gave an EC50 of under 0.01 µM. Work on `Cn1nc(C2CC3CC(O)(c4cccnc4)CC3C2)c(C(=O)Nc2ccc(F)c(Cl)c2)c1N` (stereo not shown) [Example 15, 5-Amino-N-(3-chloro-4-fluorophenyl)-3-(5-hydroxy-5-(pyridin-3-yl)octahydropentalen-2-yl)-1-methyl-1H-pyrazole-4-carboxamide] yielded an EC50 of under 0.01 µM. `Cn1nc(C2CC3CC(O)(c4ccncc4)CC3C2)c(C(=O)Nc2ccc(F)c(Cl)c2)c1N` (stereo not shown) [Example 16, 5-Amino-N-(3-chloro-4-fluorophenyl)-3-(5-hydroxy-5-(pyridin-4-yl)octahydropentalen-2-yl)-1-methyl-1H-pyrazole-4-carboxamide] showed an EC50 of under 0.01 µM. `Cc1ccc(C2(O)CC3CC(c4nn(C)c(N)c4C(=O)Nc4ccc(F)c(Cl)c4)CC3C2)nc1` (stereo not shown) [Example 17, 5-Amino-N-(3-chloro-4-fluorophenyl)-3-(5-hydroxy-5-(5-methylpyridin-2-yl)octahydropentalen-2-yl)-1-methyl-1H-pyrazole-4-carboxamide] gave an EC50 of under 0.01 µM. For `Cn1nc(C2CC3CC(O)(c4nccs4)CC3C2)c(C(=O)Nc2ccc(F)c(Cl)c2)c1N` (stereo not shown) [Example 18, 5-Amino-N-(3-chloro-4-fluorophenyl)-3-(5-hydroxy-5-(thiazol-2-yl)octahydropentalen-2-yl)-1-methyl-1H-pyrazole-4-carboxamide], the EC50 was under 0.01 µM. `Cn1ccnc1C1(O)CC2CC(c3nn(C)c(N)c3C(=O)Nc3ccc(F)c(Cl)c3)CC2C1` (stereo not shown) [Example 19, 5-Amino-N-(3-chloro-4-fluorophenyl)-3-(5-hydroxy-5-(1-methyl-1H-imidazol-2-yl)octahydropentalen-2-yl)-1-methyl-1H-pyrazole-4-carboxamide] showed an EC50 of under 0.01 µM. With `Cn1nc(C2CC3CC(O)(c4ncco4)CC3C2)c(C(=O)Nc2ccc(F)c(Cl)c2)c1N` (stereo not shown) [Example 21, 5-Amino-N-(3-chloro-4-fluorophenyl)-3-(5-hydroxy-5-(oxazol-2-yl)octahydropentalen-2-yl)-1-methyl-1H-pyrazole-4-carboxamide] the EC50 was under 0.01 µM.

Same assay, conditions: Hepatitis B virus, HePAD38, 120 h, read-out: Activity (viral load lowering EC50), HepAD38 cells, 5 days, HBV DNA in supernatant by qPCR; Table 1 ranges
Compound `Cn1nc(C2CC3CC(O)(c4cn(COP(=O)(O)OC(C)(C)C)nc4C(F)(F)F)CC3C2)c(C(=O)Nc2ccc(F)c(Cl)c2)c1N` (stereo not shown) [Cpmpd. 6-2, (4-(5-(5-amino-4-((3-chloro-4-fluorophenyl)carbamoyl)-1-methyl-1H-pyrazol-3-yl)-2-hydroxyoctahydropentalen-2-yl)-3-(trifluoromethyl)-1H-pyrazol-1-yl)methyl tert-butyl hydrogen phosphate] has an EC50 of 0.01 to 0.05 µM.
